Publication PMC10518255, “A first-in-class pan-lysyl oxidase inhibitor impairs stromal remodeling and enhances gemcitabine response and survival in pancreatic cancer” (Nature Cancer, 2023)
Several values for one entry are separate records, joined by “and”; a condition that tells them apart may be missing. Equal entries are not always repeated.

Columns and labels:
Recombinant LOXL-1 = molecular target: T1, Recombinant LOXL-1 (Homo sapiens, UniProt Q08397); experiment: Lysyl oxidase enzymatic activity, fluorescence-based assay, IC50; type: biochemical
T1 sequence (Q08397 96-574): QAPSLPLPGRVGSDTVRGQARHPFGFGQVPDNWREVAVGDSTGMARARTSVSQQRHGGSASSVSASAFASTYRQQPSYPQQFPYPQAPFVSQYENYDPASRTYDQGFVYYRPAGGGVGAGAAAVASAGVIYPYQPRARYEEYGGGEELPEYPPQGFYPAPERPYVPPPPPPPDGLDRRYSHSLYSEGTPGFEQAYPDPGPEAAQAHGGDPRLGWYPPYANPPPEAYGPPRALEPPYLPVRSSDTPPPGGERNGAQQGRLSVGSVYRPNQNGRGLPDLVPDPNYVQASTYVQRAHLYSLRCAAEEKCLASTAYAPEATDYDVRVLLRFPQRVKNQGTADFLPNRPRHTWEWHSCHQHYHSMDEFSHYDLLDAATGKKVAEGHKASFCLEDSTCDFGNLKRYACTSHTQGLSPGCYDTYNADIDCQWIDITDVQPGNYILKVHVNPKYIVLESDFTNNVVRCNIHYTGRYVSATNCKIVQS
Source text: Data are presented as mean ± s.d. […] Data presented as mean ± s.d. […] Source data TEXT PRINTED IN THE PICTURE: (b) PXS-5505: Recombinant DAO IC50 (nM): >30,000; Recombinant SSAO/VAP1 IC50 (nM): >30,000; Recombinant MAO-A IC50 (nM): >30,000; Recombinant MAO-B IC50 (nM): >30,000 | (f) PXS-5505: Fibroblast LOX IC50 (nM): 4,930; Recombinant LOXL-1 IC50 (nM): 1,590; Recombinant LOXL-2 IC50 (nM): 570; Recombinant LOXL-3 IC50 (nM): 1,800; Recombinant LOXL-4 IC50 (nM): 190
In characterizing PXS-5505, the half-maximum inhibitory concentration (IC50) values for each of the lysyl oxidase family members were determined by measuring enzymatic activity using a fluorescence-based assay. […]

[1] = Plasma concentration profile after oral PXS-5505 30 mg/kg (Extended Data Fig. 3f); type: in vivo, mice; details: for Plasma concentration: mice, individual replicates
DAO = molecular target: T2, DAO (Homo sapiens, UniProt P19801); experiment: Substrate turnover by H2O2 release, amplex red coupled fluorometric activity assay (Extended Data Fig. 3a); type: biochemical
T2 sequence (P19801 20-751): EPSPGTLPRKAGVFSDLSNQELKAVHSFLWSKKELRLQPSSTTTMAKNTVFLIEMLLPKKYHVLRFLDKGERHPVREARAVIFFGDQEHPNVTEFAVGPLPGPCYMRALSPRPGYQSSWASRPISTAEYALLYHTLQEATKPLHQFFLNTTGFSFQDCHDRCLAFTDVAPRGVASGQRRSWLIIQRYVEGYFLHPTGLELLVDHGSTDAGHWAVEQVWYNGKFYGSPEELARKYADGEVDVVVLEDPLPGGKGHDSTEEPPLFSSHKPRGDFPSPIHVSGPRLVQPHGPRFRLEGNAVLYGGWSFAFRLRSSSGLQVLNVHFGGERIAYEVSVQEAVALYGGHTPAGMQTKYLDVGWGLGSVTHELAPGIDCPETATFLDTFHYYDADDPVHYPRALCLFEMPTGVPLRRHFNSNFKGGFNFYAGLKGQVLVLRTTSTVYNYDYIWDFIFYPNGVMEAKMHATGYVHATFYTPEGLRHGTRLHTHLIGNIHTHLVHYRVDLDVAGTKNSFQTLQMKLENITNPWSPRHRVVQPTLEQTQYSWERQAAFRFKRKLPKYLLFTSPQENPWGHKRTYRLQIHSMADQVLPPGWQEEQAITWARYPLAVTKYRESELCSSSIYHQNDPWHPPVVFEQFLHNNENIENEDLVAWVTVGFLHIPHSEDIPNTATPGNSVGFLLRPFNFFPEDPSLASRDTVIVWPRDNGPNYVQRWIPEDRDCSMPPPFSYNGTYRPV
Source text: Specifically, BAPN is oxidized by diamine oxidase (DAO) and semicarbazide-sensitive amine oxidase (SSAO)/vascular adhesion protein 1 (VAP-1) in the vasculature (Extended Data Fig. 3a), which releases hydrogen […] (H2O2) and aldehyde in humans leading to toxicity.
Data presented as mean values +/− SD. f. […] Data presented as mean values +/− SD. […] Data presented as mean values +/− SD. […] Data presented as mean values +/− SD. Ordinary one-way ANOVA for multiple comparison test performed. Source data

[2] = molecular target: all lysyl oxidase family members; experiment: Lysyl oxidase enzymatic activity, fluorescence-based assay, IC50 range over the family; type: biochemical, human; details: range over the five family members; read-out: IC50 values against all lysyl oxidase family members
Protocol: In characterizing PXS-5505, the half-maximum inhibitory concentration (IC50) values for each of the lysyl oxidase family members were determined by measuring enzymatic activity using a fluorescence-based assay.

With Cl.Cl.NC/C=C(\F)CS(=O)(=O)c1cccc2cccnc12.O [PXS-5505, (Z)-3-fluoro-4-(quinolin-8-ylsulfonyl)but-2-en-1-amine dihydrochloride monohydrate] the IC50 (Recombinant LOXL-1) was 1590 nM, the “LOXL1 activity, IC50 determination curve” value (Recombinant LOXL-1; log(Concentration) -4.52288, replicates, 30 µM) was -0.3767 and 0.3431 and 4.322 and the “LOXL1 activity, IC50 determination curve” value (Recombinant LOXL-1; log(Concentration) -5, replicates, 10 µM) was 5.837. For the same compound, the “LOXL1 activity, IC50 determination curve” value (Recombinant LOXL-1; log(Concentration) -5.47712, replicates, 3.333 µM) was 31.2503 and 31.9336, the “LOXL1 activity, IC50 determination curve” value (Recombinant LOXL-1; log(Concentration) -5.95424, replicates, 1.111 µM) was 60.6166 and 67.4565 and the “LOXL1 activity, IC50 determination curve” value (Recombinant LOXL-1; log(Concentration) -6.43136, replicates, 0.3704 µM) was 85.3221 and 90.5851. The “LOXL1 activity, IC50 determination curve” value (Recombinant LOXL-1; log(Concentration) -6.90849, replicates, 0.1235 µM) was 93.09 and 98.6783, the “LOXL1 activity, IC50 determination curve” value (Recombinant LOXL-1; log(Concentration) -7.38561, replicates, 0.04115 µM) was 99.6453 and 102.919 and the “LOXL1 activity, IC50 determination curve” value (Recombinant LOXL-1; log(Concentration) -7.86273, replicates, 0.01372 µM) was 100.176 and 100.944. For the same compound, the “LOXL1 activity, IC50 determination curve” value (Recombinant LOXL-1; log(Concentration) -8.33985, replicates, 0.004572 µM) was 101.83 and 104.276, the “LOXL1 activity, IC50 determination curve” value (Recombinant LOXL-1; log(Concentration) -8.81697, replicates, 0.001524 µM) was 107.666 and 104.748 and the “LOXL1 activity, IC50 determination curve” value (Recombinant LOXL-1; log(Concentration) -9.29409, replicates, 0.000508 µM) was 100.744 and 106.953. For the same compound, the activity at 10 µM (Recombinant LOXL-1; read-out: LOXL1 activity, IC50 determination curve, log(Concentration) -5, replicates) was 4.51%, the activity at 3.333 µM (Recombinant LOXL-1; read-out: LOXL1 activity, IC50 determination curve, log(Concentration) -5.47712, replicates) was 20.9% and the activity at 1.111 µM (Recombinant LOXL-1; read-out: LOXL1 activity, IC50 determination curve, log(Concentration) -5.95424, replicates) was 63.8%. The activity at 0.3704 µM (Recombinant LOXL-1; read-out: LOXL1 activity, IC50 determination curve, log(Concentration) -6.43136, replicates) was 85%, the activity at 0.1235 µM (Recombinant LOXL-1; read-out: LOXL1 activity, IC50 determination curve, log(Concentration) -6.90849, replicates) was 94.6% and the activity at 0.04115 µM (Recombinant LOXL-1; read-out: LOXL1 activity, IC50 determination curve, log(Concentration) -7.38561, replicates) was 99.8%. The activity at 0.01372 µM (Recombinant LOXL-1; read-out: LOXL1 activity, IC50 determination curve, log(Concentration) -7.86273, replicates) was 100%, the activity at 0.004572 µM (Recombinant LOXL-1; read-out: LOXL1 activity, IC50 determination curve, log(Concentration) -8.33985, replicates) was 101% and the activity at 0.001524 µM (Recombinant LOXL-1; read-out: LOXL1 activity, IC50 determination curve, log(Concentration) -8.81697, replicates) was 101%. For the same compound, the activity at 0.000508 µM (Recombinant LOXL-1; read-out: LOXL1 activity, IC50 determination curve, log(Concentration) -9.29409, replicates) was 102%, the Plasma concentration ([1]; oral 5 mg/kg, time 0.5 hrs, 5 mg/kg) was 424 and 270.3 and 246.9 and the Plasma concentration ([1]; oral 5 mg/kg, time 1 hrs, 5 mg/kg) was 183.1 and 190 and 142.6. For the same compound, the Plasma concentration ([1]; oral 5 mg/kg, time 2 hrs, 5 mg/kg) was 40.1 and 93 and 39.5, the Plasma concentration ([1]; oral 5 mg/kg, time 4 hrs, 5 mg/kg) was 10.2 and 13.8 and 3.1 and the Plasma concentration ([1]; oral 5 mg/kg, time 8 hrs, 5 mg/kg) was 3.2 and 2.1 and 1.3. For the same compound, the Plasma concentration ([1]; oral 10 mg/kg, time 0.5 hrs, 10 mg/kg) was 1283.4 and 374.2 and 656.3, the Plasma concentration ([1]; oral 10 mg/kg, time 1 hrs, 10 mg/kg) was 814.4 and 337 and 493.5 and the Plasma concentration ([1]; oral 10 mg/kg, time 2 hrs, 10 mg/kg) was 138.5 and 336.7 and 262.8. For the same compound, the Plasma concentration ([1]; oral 10 mg/kg, time 4 hrs, 10 mg/kg) was 113.3 and 25.7 and 30.1, the Plasma concentration ([1]; oral 10 mg/kg, time 8 hrs, 10 mg/kg) was 14.4 and 5.9 and 4.9 and the Plasma concentration ([1]; oral 30 mg/kg, time 0.5 hrs, 30 mg/kg) was 3584.3 and 3445.6 and 4112.8. The Plasma concentration ([1]; oral 30 mg/kg, time 1 hrs, 30 mg/kg) was 3340.5 and 2725.9 and 2974.4, the Plasma concentration ([1]; oral 30 mg/kg, time 2 hrs, 30 mg/kg) was 1379.4 and 1690.4 and 1354.7 and the Plasma concentration ([1]; oral 30 mg/kg, time 4 hrs, 30 mg/kg) was 160.9 and 186.3 and 206.9. The Plasma concentration ([1]; oral 30 mg/kg, time 8 hrs, 30 mg/kg) was 13.1 and 14.5 and 13.6, the half-life ([1]; mouse, plasma, single oral dose 30 mg kg−1, read-out: calculated half-life (plasma) (converted)) was 1 h and the “processing as a substrate by DAO” value (DAO) was “not processed as a substrate”. The “Turnover by DAO as measured by H2O2 release, mean” value (from here on “Turnover by DAO as measured”) (DAO; listed as value 30 (unit not given)) was 0.9677, the “Turnover by DAO as measured” value (DAO; listed as value 60 (unit not given)) was 0.9315 and the “Turnover by DAO as measured” value (DAO; listed as value 300 (unit not given)) was 1.1475. For the same compound, the IC50 [2] was 200 to 5000 nM.
